Data published in patent US6841519B1, “Isoxazoline derivatives and herbicides containing the same as the active ingredient” (Kumiai Chemical Industry Co., Ltd., priority 1999, dated 2005).

Tests used:
Type in all cases: in vivo
[1] = tested on: Echinochloa oryzicola Vasing. (Eo); experiment: Test for herbicidal effect by paddy field soil treatment (Test Example 1); details: application amount (active ingredient) 100 g/10 a, examined at the 21st day from the treatment, index per Table 40
In short: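 Eo seeds sown in puddled paddy soil under 3 cm water; next day a water-diluted wettable powder was dropped onto the water surface at 100 g active ingredient per 10 ares. Herbicidal effect scored on a standard scale 21 days after treatment, greenhouse-grown.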

[2] = tested on: Echinochloa crus-galli (L.) Beauv. var. crusgall (Ec); experiment: Test for herbicidal effect by upland field soil treatment (Test Example 2), Ec
In short: (§1)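 Echinochloa crus-galli and Setaria viridis were sown in upland field soil and covered, then the soil surface was sprayed with water-diluted wettable powder at 100 g active ingredient per 10 ares (100 liters per 10 ares). Plants were grown in a greenhouse and scored on a standard scale on day 21.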

[3] = tested on: Setaria viridis (L.) Beauv. (Se); experiment: Test for herbicidal effect by upland field soil treatment (Test Example 2), Se
In short: as §1

[4] = tested on: Echinochloa crus-galli (L.) Beauv. var. crusgalli (Ec); experiment: Test for herbicidal effect by upland foliage treatment (Test Example 3); details: 100 g/10 a active ingredient, examined at 14th day
In short: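 Potted upland-soil Ec seedlings grown 2 weeks in greenhouse, then foliage-sprayed with water-diluted wettable powder at 100 L per 10 ares, giving 100 g active ingredient per 10 ares. Herbicidal effect scored on a graded standard 14 days after treatment.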

rice (Or) = experiment: Test for crop selectivity by paddy field soil treatment (Test Example 4), phytotoxicity to rice; details: transplanted two-leaf stage rice, 100 g/10 a active ingredient, 21st day
Method: (§2) [table] <Test Example 4> Test For Crop Selectivity By Paddy Field Soil Treatment A paddy field soil was filled in a plastic pot of 100 cm^2 and subjected to puddling. Seeds of Echinochloa oryzicola Vasing. (Eo) were sowed; two-leaf stage seedlings of rice (Or) were transplanted in a depth of 2 cm; and water was filled in a depth of 3 cm. Next day, wettable powders produced in accordance with the Formulation 1 were diluted with water and dropped on the water surface. The application amount of each wettable powder was 100 g per 10 ares in terms of the active ingredient. Then, breeding was made in a greenhouse. At the 21st day from the treatment, the phytotoxicity and herbicidal effect of each wettable powder were examined in accordance with the standard shown in Table 40.

[5] = tested on: Echinochloa oryzicola Vasing. (Eo); experiment: Test for crop selectivity by paddy field soil treatment (Test Example 4), herbicidal effect on Eo; details: 100 g/10 a active ingredient, 21st day
Method: as §2

[6] = tested on: Chenopodium album L. (Ch); experiment: Test for herbicidal effect to broadleaf weeds by upland field soil treatment (Test Example 6), Ch; details: 25 g/10 a active ingredient, 30th day
Method: Test for herbicidal effect to broadleaf weeds by upland field soil treatment
An upland field soil was filled in a plastic pot of 80 cm^2. Seeds of Polygonum lapathifolium L. subsp. nodosum (Pers.) Kitam. (Po) and Chenopodium album L. (Ch) were sowed, followed by covering with the same soil. Wettable powders produced in accordance with the Formulation 1 were diluted with water and sprayed uniformly on the soil surface using a small sprayer, […] Then, breeding was made in a greenhouse. At the 30th day from the treatment, the herbicidal effect of each wettable powder was examined in accordance with the standard shown in Table 40.

[7] = 100 g/10 a active ingredient, examined at 21st day
[8] = application amount (active ingredient) 100 g/10 a, examined at the 21st day from the treatment, index per Table 40

| SMILES | Herbicidal effect to Eo [1] | Herbicidal effect to Ec [2, 7] | Herbicidal effect to Se [3, 7] | Herbicidal effect to Ec [4] | Phytotoxicity to Or (rice (Or)) | Herbicidal effect to Eo [5] | Herbicidal effect to Ec [2, 8] | Herbicidal effect to Se [3, 8] | Herbicidal effect to Ch [6] |
| --- | --- | --- | --- | --- | --- | --- | --- | --- | --- |
| COC(=O)c1cccc(CS(=O)(=O)C2=NOC(C)(C)C2)c1[N+](=O)[O-] [Compound 1-503] | 5 (A herbicidal effect or phytotoxicity of 90% or more) | 5 (A herbicidal effect or phytotoxicity of 90% or more) | 5 (A herbicidal effect or phytotoxicity of 90% or more) | 4 (A herbicidal effect or phytotoxicity of 70% to less than 90%) | 0 (A herbicidal effect or phytotoxicity of 0% to less than 10%) | 5 (A herbicidal effect or phytotoxicity of 90% or more) |  |  |  |
| COC(=O)c1ccccc1CS(=O)(=O)C1=NOC(C)(C)C1 [Compound 1-145] | 5 (A herbicidal effect or phytotoxicity of 90% or more) |  |  | 4 (A herbicidal effect or phytotoxicity of 70% to less than 90%) | 0 (A herbicidal effect or phytotoxicity of 0% to less than 10%) | 5 (A herbicidal effect or phytotoxicity of 90% or more) | 5 (A herbicidal effect or phytotoxicity of 90% or more) | 5 (A herbicidal effect or phytotoxicity of 90% or more) |  |
| CCC1(C)CC(S(=O)(=O)Cc2cccc(OC)c2)=NO1 (stereo not shown) [Compound 1-229] | 5 (A herbicidal effect or phytotoxicity of 90% or more) |  |  | 4 (A herbicidal effect or phytotoxicity of 70% to less than 90%) | 1 (A herbicidal effect or phytotoxicity of 10% to less than 30%) | 5 (A herbicidal effect or phytotoxicity of 90% or more) | 5 (A herbicidal effect or phytotoxicity of 90% or more) | 5 (A herbicidal effect or phytotoxicity of 90% or more) |  |
| CCCCOC(=O)c1ccccc1CS(=O)(=O)C1=NOC(C)(C)C1 [Compound 1-596] | 5 (A herbicidal effect or phytotoxicity of 90% or more) | 5 (A herbicidal effect or phytotoxicity of 90% or more) | 5 (A herbicidal effect or phytotoxicity of 90% or more) |  | 1 (A herbicidal effect or phytotoxicity of 10% to less than 30%) | 5 (A herbicidal effect or phytotoxicity of 90% or more) |  |  |  |
| CC12CCCCCC1C(S(=O)(=O)Cc1c(F)cccc1F)=NO2 (stereo not shown) [Compound 1-556] | 5 (A herbicidal effect or phytotoxicity of 90% or more) | 5 (A herbicidal effect or phytotoxicity of 90% or more) | 4 (A herbicidal effect or phytotoxicity of 70% to less than 90%) | 4 (A herbicidal effect or phytotoxicity of 70% to less than 90%) | 0 (A herbicidal effect or phytotoxicity of 0% to less than 10%) | 5 (A herbicidal effect or phytotoxicity of 90% or more) |  |  |  |
| COc1ccc(C(C)C)c(C)c1CS(=O)(=O)C1=NOC(C)(C)C1 [Compound 1-584] | 5 (A herbicidal effect or phytotoxicity of 90% or more) |  |  | 5 (A herbicidal effect or phytotoxicity of 90% or more) | 1 (A herbicidal effect or phytotoxicity of 10% to less than 30%) | 5 (A herbicidal effect or phytotoxicity of 90% or more) |  |  |  |
| CCC1(C)CC(S(=O)(=O)Cc2cccc([N+](=O)[O-])c2)=NO1 (stereo not shown) [Compound 1-331] | 5 (A herbicidal effect or phytotoxicity of 90% or more) |  |  |  | 0 (A herbicidal effect or phytotoxicity of 0% to less than 10%) | 5 (A herbicidal effect or phytotoxicity of 90% or more) | 5 (A herbicidal effect or phytotoxicity of 90% or more) | 5 (A herbicidal effect or phytotoxicity of 90% or more) |  |
| CC1(C)CC(S(=O)(=O)Cc2ccccc2Cl)=NO1 [Compound 1-2] | 5 (A herbicidal effect or phytotoxicity of 90% or more) |  |  | 4 (A herbicidal effect or phytotoxicity of 70% to less than 90%) |  |  | 5 (A herbicidal effect or phytotoxicity of 90% or more) | 5 (A herbicidal effect or phytotoxicity of 90% or more) | 4 (A herbicidal effect or phytotoxicity of 70% to less than 90%) |
| C=CCOC(=O)c1ccccc1CS(=O)(=O)C1=NOC(C)(C)C1 [Compound 1-599] | 5 (A herbicidal effect or phytotoxicity of 90% or more) | 5 (A herbicidal effect or phytotoxicity of 90% or more) | 5 (A herbicidal effect or phytotoxicity of 90% or more) | 4 (A herbicidal effect or phytotoxicity of 70% to less than 90%) | 1 (A herbicidal effect or phytotoxicity of 10% to less than 30%) | 5 (A herbicidal effect or phytotoxicity of 90% or more) |  |  |  |
| CCC1(C)CC(S(=O)(=O)Cc2ccccc2OC)=NO1 (stereo not shown) [Compound 1-228] | 5 (A herbicidal effect or phytotoxicity of 90% or more) |  |  |  | 1 (A herbicidal effect or phytotoxicity of 10% to less than 30%) | 5 (A herbicidal effect or phytotoxicity of 90% or more) | 5 (A herbicidal effect or phytotoxicity of 90% or more) | 5 (A herbicidal effect or phytotoxicity of 90% or more) |  |
| CCCCOc1cccc(Cl)c1CS(=O)(=O)C1=NOC(C)(C)C1 [Compound 1-574] | 5 (A herbicidal effect or phytotoxicity of 90% or more) | 5 (A herbicidal effect or phytotoxicity of 90% or more) | 5 (A herbicidal effect or phytotoxicity of 90% or more) | 4 (A herbicidal effect or phytotoxicity of 70% to less than 90%) | 1 (A herbicidal effect or phytotoxicity of 10% to less than 30%) | 5 (A herbicidal effect or phytotoxicity of 90% or more) |  |  |  |
| CCC1(C)CC(S(=O)(=O)Cc2ccc(C)cc2)=NO1 (stereo not shown) [Compound 1-203] | 5 (A herbicidal effect or phytotoxicity of 90% or more) |  |  | 4 (A herbicidal effect or phytotoxicity of 70% to less than 90%) | 1 (A herbicidal effect or phytotoxicity of 10% to less than 30%) | 5 (A herbicidal effect or phytotoxicity of 90% or more) | 5 (A herbicidal effect or phytotoxicity of 90% or more) | 4 (A herbicidal effect or phytotoxicity of 70% to less than 90%) |  |
| O=S(=O)(Cc1c(F)cccc1F)C1=NOC(C2CC2)(C2CC2)C1 [Compound 1-520] | 5 (A herbicidal effect or phytotoxicity of 90% or more) | 5 (A herbicidal effect or phytotoxicity of 90% or more) | 5 (A herbicidal effect or phytotoxicity of 90% or more) | 4 (A herbicidal effect or phytotoxicity of 70% to less than 90%) | 1 (A herbicidal effect or phytotoxicity of 10% to less than 30%) | 5 (A herbicidal effect or phytotoxicity of 90% or more) |  |  |  |
| CCCCOCc1ccccc1CS(=O)(=O)C1=NOC(C)(C)C1 [Compound 1-615] | 5 (A herbicidal effect or phytotoxicity of 90% or more) | 5 (A herbicidal effect or phytotoxicity of 90% or more) | 5 (A herbicidal effect or phytotoxicity of 90% or more) |  | 1 (A herbicidal effect or phytotoxicity of 10% to less than 30%) | 5 (A herbicidal effect or phytotoxicity of 90% or more) |  |  |  |
| CS(=O)(=O)C1=NOC2(CCC2)C1 [Compound 2-29] | 5 (A herbicidal effect or phytotoxicity of 90% or more) | 5 (A herbicidal effect or phytotoxicity of 90% or more) | 5 (A herbicidal effect or phytotoxicity of 90% or more) |  | 1 (A herbicidal effect or phytotoxicity of 10% to less than 30%) | 5 (A herbicidal effect or phytotoxicity of 90% or more) |  |  |  |
